Assay in all cases: NCI tumour cell line growth inhibition, 48 h
In experiment [1] the test system is COLO 205 colon.
Experiment [2] concerns PC-3 prostate.
Experiment [3] deals with KM12 colon.
For experiment [4], the system named is OVCAR-8 ovarian.
For experiment [5], the system named is HCT-116 colon.
For experiment [6], the system named is NCI-H226 lung.
The test system of experiment [7] is SK-OV-3 ovarian.
The test system of experiment [8] is A549 NSCLC.
Experiment [9] has as its system HOP-62 NSCLC.
Experiment [10] relates to HOP-92 NSCLC.

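48-hour exposure; five concentrations; linearly interpolated endpoints. GI50 = concentration required for 50% inhibition of growth. TGI: concentration producing complete growth inhibition.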 Where only a bound is given, the exact number is not on record here.

`CCn1c(=O)c2c(=O)c3c4c(oc3oc2c2ccccc21)C(=O)c1ccccc1C4=O`: the GI50 in experiment [1] is greater than 100 µM; in [2] it was 8.71 µM; in [3], greater than 100 µM; in experiment [4], 3.3 µM; in experiment [6], greater than 100 µM; in [7] it was greater than 100 µM. The GI50 in [8] is greater than 100 µM; in [9], greater than 21.6 µM. For the same molecule, the TGI in experiment [1], in experiment [2], in experiment [3], in experiment [4], in [5] and in experiment [6] was greater than 100 µM throughout. Besides, the TGI in experiment [7], in [8] and in experiment [9] was greater than 100 µM in each case.
For the molecule `CC1=C(C(=O)Nc2ccc(Cl)c(Cl)c2)C(c2cccc(Oc3ccccc3)c2)NC(=O)N1` (stereo not given), the GI50 is 12.6 µM in experiment [1]; 16.3 µM in [2]; 8.72 µM in [3]; 24.6 µM in experiment [10]; 7.67 µM in experiment [4]; 8.36 µM in [6]. The GI50 in experiment [7] was 25.5 µM; in [8], 3.94 µM; in experiment [9], 14.6 µM. For the same molecule, the TGI in experiment [1] is 35.7 µM; in experiment [2] it was greater than 50 µM; in experiment [3], 19.7 µM; in [10], greater than 50 µM; in experiment [4] it was 22 µM; in experiment [6], 19.8 µM. In addition, the TGI is greater than 50 µM in [7], greater than 50 µM in [8] and 26.5 µM in experiment [9].
As for `COc1ccc(-n2c(C)cc(-c3ccccc3)c2C)cc1`, the GI50 in experiment [1] is 2.42 µM; in [2] it was 2.22 µM; in experiment [3] it was 2.85 µM; in experiment [4], 3.51 µM; in experiment [5], 2.11 µM; in [6], 5.75 µM. Further, the GI50 in experiment [7] is 6.83 µM; in [8] it was 2.88 µM; in [9], 6.68 µM. In addition, the TGI in [1] was 5.95 µM; in experiment [2], greater than 100 µM; in experiment [3], 35.3 µM; in experiment [4], 38 µM; in experiment [5], 16.1 µM; in experiment [6], 31.2 µM. The figures for the TGI in [7], in [8] and in experiment [9] were 68.6 µM, 38.7 µM and 67.8 µM, respectively.
Consider `COC(=O)/C=C/c1c(CC=C(C)C)ncn1C`, for which the TGI is greater than 100 µM in experiment [1]; greater than 100 µM in experiment [3]; greater than 100 µM in experiment [10]; greater than 100 µM in experiment [4]; greater than 100 µM in experiment [5]; greater than 89.8 µM in experiment [6]. The TGI in [7], in experiment [8] and in [9] was greater than 100 µM in each case.
For the molecule `COc1cc(C=O)c(-c2cc(OC)c(OC)cc2C=O)cc1OC`, the TGI in [1], in experiment [3], in [10], in experiment [4], in experiment [5] and in experiment [6] was greater than 100 µM throughout. Besides, the TGI in [7], in experiment [8] and in experiment [9] was greater than 100 µM in each case.
With `COc1ncc(-c2ccc3ncnc(Nc4cccc(Cl)c4)c3c2)cc1NS(=O)(=O)C1CC1`, the GI50 is greater than 100 µM in [1]; greater than 100 µM in experiment [2]; 38.9 µM in experiment [3]; 0.394 µM in [10]; 2.18 µM in experiment [4]. In addition, the TGI in [1], in experiment [2], in experiment [3], in [10] and in [4] was greater than 100 µM throughout.
Regarding `c1ccc2c(c1)c1c(c3ccccc32)CN2CCCC2C1` (stereo not given), the TGI in [1] came out at 13.8 µM; in experiment [2] it was 13.4 µM; in experiment [3], 15.7 µM; in [10], 13.4 µM; in experiment [4], 14.5 µM; in experiment [5] it was 14.7 µM. Besides, the TGI in experiment [7] is greater than 100 µM; in [8], 17.9 µM; in [9], greater than 31.9 µM.
Turning to `NC(=O)OCCn1cc(-c2nc(-c3c[nH]c4ncccc34)cs2)c2ccccc21`, the GI50 in experiment [1] is 2.06 µM; in experiment [2] it was 1.87 µM; in [3], 1.44 µM; in experiment [10], 0.668 µM; in experiment [5], 1.72 µM; in experiment [6], 1.68 µM. For the same molecule, the GI50 in [7] was 1.54 µM; in experiment [8] it was 2.34 µM; in [9], 1.07 µM. The TGI is 9.57 µM in experiment [1]; 14.6 µM in experiment [2]; 9.45 µM in experiment [3]; 3.71 µM in [10]; 5.02 µM in [5]; 12.5 µM in [6]. Further, the TGI was found to be 6.44 µM in experiment [7], 23 µM in experiment [8] and 7.87 µM in experiment [9].
On to `O=C1OCC2C1C1c3ccccc3C(O)c3ccccc3C21` (stereo not given), for which the TGI in [1], in experiment [3], in experiment [10], in [4], in experiment [5] and in experiment [6] was greater than 100 µM throughout. Further, the TGI in experiment [7], in experiment [8] and in experiment [9] was greater than 100 µM throughout.
Regarding `O=C1NC(=NCCc2cccc(Cl)c2)S/C1=C\c1ccc2ncccc2c1`, the GI50 is greater than 25 µM in experiment [1]; greater than 25 µM in experiment [2]; 1.32 µM in [3]; greater than 25 µM in [10]; greater than 25 µM in experiment [4]; greater than 25 µM in experiment [6]. The GI50 in experiment [7], in experiment [8] and in [9] was greater than 25 µM in each case. Also, the TGI in [1], in [2], in [3], in experiment [10], in [4] and in [6] was greater than 25 µM in each case. Also, the TGI in experiment [7], in experiment [8] and in experiment [9] was greater than 25 µM throughout.

The values are drawn from PubChem BioAssay (NCI).
